Results: patent publication US11939362B2, “Light-inducible protein aggregation system for modeling proteinopathies and neurodegenerative disorders” (UNIVERSITÉ LAVAL, priority 2018, dated 2024)

How the values were obtained:
[1] = tested on: LIPA-α-syn aggregates; test: Stability of LIPA-α-syn inclusions after light stimulation (proportion of mCherry-positive cells with inclusions); type: cell-based, human; conditions: for reduction in the number of cells exhibiting stable LIPA-α-syn inclusions / effect on the proportion of cells with mCherry inclusions: HEK-293T cells overexpressing LIPA-α-syn; for reduction in the number of cells exhibiting stable LIPA-α-syn inclusions: 12 h pre-exposure to blue light, treatment with small molecule inhibitor, FIG. 16, n=5; for effect on the proportion of cells with mCherry inclusions: treatment with inactive small molecules, FIG. 18, n=5
Experimental: HEK-293T cells were seeded on 0.1% gelatin-coated glass coverslips in 24-well plates at a density of 10^4 cells per well (50% confluence) and transiently transfected, 24 h later, with 0.5 μg of LIPA-Empty, 0.6 μg LIPA-α-syn, and 1 μg LIPA-α-syn^ΔNAC per 4 wells, to obtain similar protein expression levels in all conditions. 24 h post-transfection, cells were exposed to blue light (λ=456 nm) using UHP-T-DI-LED series Ultra High-Power LEDs (Prizmatix), at an intensity of 0.8 mW/cm^2, as measured using LPM-100 light power meter (Amuza). Cells were collected at different time points and fixed in 4% paraformaldehyde for 15 min at room temperature (RT), then washed three times (5 min) with PBS and permeabilized with PBS containing 0.25% Triton X-100, for 30 min at RT. Cells were incubated in blocking buffer solution (PBS containing 5% BSA and 0.1% Triton X-100), for 1 h at RT. Coverslips were incubated with primary antibodies (see Table 1) diluted in blocking buffer solution for 2 h at RT. Coverslips were washed three times in blocking buffer solution (10 min) and appropriate Alexa Fluor® secondary antibodies (Life Technologies, see Table 1) were applied for 1 h at RT. Coverslips were washed twice with PBS (10 min) and counterstained with the fluorescent nuclear stain […] 4,6-diamidino-2-phenylindole (DAPI) (1:5000) for 5 min. Coverslips were then washed twice with PBS (10 min), mounted on Prolong® Gold Antifade (Molecular Probes), and imaged using a Zeiss LSM800 confocal microscope. For thioflavin S (ThS) staining, fixed and permeabilized cells were incubated with 0.05% ThS for 15 min, washed three times with 70% ethanol for 10 min, and then cells were directly counterstained with DAPI. All immunocytochemistry experiments were made with gentle rocking and protected from light.
(§1) To evaluate the number of mCherry-positive cells with aggregates, a total of 8-10 images per condition were collected using a fluorescence microscope (Nikon Eclipse 80i; 20× objective) and a total of 220-250 cells were quantified by two experimenters, in a blind manner, using ImageJ.
The stability of LIPA-α-syn inclusions in the absence of light stimulation was evaluated by assessing the proportion of mCherry-positive cells having inclusions. LIPA aggregates were allowed to form over a 12 h period under light stimulation and cells were collected at different time points up to 48 h post-illumination (FIG. 14).
The impact of treatment with potent small molecule inhibitors of α-syn aggregation, namely baicalein and myrecitin (Masuda et al., 2006; Zhu et al., 2004), on the stability of LIPA-α-syn inclusions was next evaluated. […] Treatment with baicalein or myrecitin had no effect on LIPA-Empty dissociation, confirming the specificity of these inhibitors (FIG. 17).
Previous studies have reported that both β-synuclein (β-syn) and mouse α-syn (ma-syn) overexpression inhibit human α-syn aggregation in cell culture and animal models. To test the impact of these two proteins on LIPA-α-syn inclusion formation, LIPA-α-syn was overexpressed with β-syn or ma-syn in HEK-293T cells, then transiently exposed to blue light for 12 h.

[2] = molecular target: T1, LIPA-Empty aggregates (Arabidopsis thaliana, UniProt Q96524, E490G); test: Stability/dissociation of LIPA-Empty inclusions after light stimulation (proportion of mCherry-positive cells with inclusions); type: cell-based, human; conditions: HEK-293T cells overexpressing LIPA-Empty, 12 h pre-exposure to blue light, FIG. 17, n=5
T1 construct: expressed in transfected cells; host or cells: HEK-293T
Experimental: HEK-293T cells were seeded on 0.1% gelatin-coated glass coverslips in 24-well plates at a density of 10^4 cells per well (50% confluence) and transiently transfected, 24 h later, with 0.5 μg of LIPA-Empty, 0.6 μg LIPA-α-syn, and 1 μg LIPA-α-syn^ΔNAC per 4 wells, to obtain similar protein expression levels in all conditions. 24 h post-transfection, cells were exposed to blue light (λ=456 nm) using UHP-T-DI-LED series Ultra High-Power LEDs (Prizmatix), at an intensity of 0.8 mW/cm^2, as measured using LPM-100 light power meter (Amuza). […]
as §1
The stability of LIPA-α-syn inclusions in the absence of light stimulation was evaluated by assessing the proportion of mCherry-positive cells having inclusions. […]
The impact of treatment with potent small molecule inhibitors of α-syn aggregation, namely baicalein and myrecitin (Masuda et al., 2006; Zhu et al., 2004), on the stability of LIPA-α-syn inclusions was next evaluated. […]

T1 sequence (Q96524 1-498 E490G): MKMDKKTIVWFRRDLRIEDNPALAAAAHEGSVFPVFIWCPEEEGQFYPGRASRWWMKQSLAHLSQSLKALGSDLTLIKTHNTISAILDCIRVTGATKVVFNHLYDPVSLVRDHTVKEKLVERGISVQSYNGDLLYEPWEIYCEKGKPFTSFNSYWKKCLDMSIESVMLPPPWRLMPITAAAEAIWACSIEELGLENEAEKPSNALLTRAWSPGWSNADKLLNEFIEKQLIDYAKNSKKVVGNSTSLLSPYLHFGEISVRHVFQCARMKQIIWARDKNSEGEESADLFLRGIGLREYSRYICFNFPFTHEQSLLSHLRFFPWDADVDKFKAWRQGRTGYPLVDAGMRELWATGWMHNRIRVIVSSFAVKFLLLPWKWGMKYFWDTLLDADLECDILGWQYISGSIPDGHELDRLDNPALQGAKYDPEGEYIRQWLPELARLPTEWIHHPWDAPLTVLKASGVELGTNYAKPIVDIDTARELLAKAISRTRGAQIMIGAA

O=c1c(O)c(-c2cc(O)c(O)c(O)c2)oc2cc(O)cc(O)c12 [myrecitin]
reduction in the number of cells exhibiting stable LIPA-α-syn inclusions [1]: 50%
effect on LIPA-Empty dissociation [2]: no effect

O=c1cc(-c2ccccc2)oc2cc(O)c(O)c(O)c12 [baicalein]
reduction in the number of cells exhibiting stable LIPA-α-syn inclusions [1]: 50%
effect on LIPA-Empty dissociation [2]: no effect

O=C1C[C@@H](c2ccc(O)cc2)Oc2cc(O)cc(O)c21 [naringenin]
effect on the proportion of cells with mCherry inclusions [1]: did not affect

β-syn: β-synuclein overexpressed in cells; reported to inhibit human α-syn aggregation
reduction of the proportion of cells exhibiting mCherry aggregates (LIPA-α-syn inclusions) ([1]; co-overexpression with LIPA-α-syn in HEK-293T cells, blue light 12 h, post-stimulation analysis, FIG. 19 and 21, n=5): significant reduction

O=c1c(-c2ccc(O)cc2)coc2cc(O)ccc12 [daidzein]
effect on the proportion of cells with mCherry inclusions [1]: did not affect
